Source: paper PMC7156612, “Olinciguat, an Oral sGC Stimulator, Exhibits Diverse Pharmacology Across Preclinical Models of Cardiovascular, Metabolic, Renal, and Inflammatory Disease” (Frontiers in Pharmacology, 2020)
Where “and” joins values, the source holds several entries; their conditions need not be identical. Equal values may be shown once.

How the values were obtained:
normotensive Wistar rats = test: Arterial hemodynamics by telemetry in normotensive Wistar rats; type: in vivo, rat
Method: (§1) The Dataquest A.R.T.™ acquisition and analysis system (Data Sciences International [DSI], St. Paul, MN) was employed to monitor and analyze hemodynamic data from conscious, freely moving rats surgically implanted with a telemetry pressure transmitter (PA-C40). Telemetry transmitter implantation was performed on rats under sterile conditions. Rats were anesthetized with isoflurane and body temperature was maintained with a heating pad during surgery. A laparotomy was performed to expose the abdominal aorta. The catheter tip of the telemetry transmitter was inserted into the abdominal aorta and secured with a 5-0 silk suture (Ethicon, Inc., Somerville, NJ). The abdominal incision was closed with uninterrupted suture (4-0 silk, Ethicon, Inc., Somerville, NJ) and the telemetry transmitter was placed in the abdominal cavity and secured to the abdominal wall. Approximately 100 µl of 0.25% marcaine was applied directly to the closed abdominal wall, and the skin was then closed with suture (4-0 Vicryl® absorbable, Ethicon, Inc., Somerville, NJ). Buprenorphine (0.05 mg/kg/day, subcutaneous [s.c.]) was administered immediately after the surgery for postoperative pain relief. After recovery from anesthesia, rats were returned to their home cages, placed on DSI receivers, and allowed a 5- to 14-day recovery period. Arterial hemodynamics were measured continuously and recorded throughout the study. For acute studies, analysis was based on hourly averages, for chronic studies, analysis was based on daily or weekly averages.
(§2) Spontaneously hypertensive rats (SHRs) (n=6, male, 230–250 g, 14 weeks of age) and Wistar rats (n=6, male, 230–250 g, 12 weeks of age) were implanted with telemetry transmitters as described above. Olinciguat was formulated as a suspension in a vehicle containing 0.5% methylcellulose and 0.2% Tween. Rats were p.o. dosed with a dosing volume of 5 ml/kg. […] Using plasma from tail vein, olinciguat plasma concentrations were determined at 1, 6, and 24 h post-dose on day 4 and reported as the mean from Wistar (n=3) and SHR (n=3). Hemodynamics were recorded hourly during a 24-h baseline period and over the first 3 days of dosing.
(§3) Maximum change from baseline of mean arterial pressure (MAP) was calculated using the 24-h pre-first dose average subtracted from the lowest MAP value recorded within 2 h following dosing. The 1-h post-dose change from baseline heart rate (HR) was calculated using the 3-h pre-first dose average subtracted from the 1-h post-dose average.
(§4) In the hemodynamic study in Wistar and SHR, hourly MAP data were analyzed using a repeated measures two-way ANOVA, with time and treatment group as independent variables. Significance at each timepoint was determined as compared to the vehicle control using a Dunnett's post-hoc test.

[1] = Plasma protein binding (equilibrium dialysis), rat; type: in vitro ADME; conditions: both sexes, Sprague Dawley, 1 and 10 μM, equilibrium dialysis 18 h, no gender difference, read-out: bound to plasma proteins
Method: Concentrated (10 mM) DMSO stock solutions of olinciguat were diluted to 1 and 10 μM in 2.5 ml of rat (male and female Sprague Dawley) and human plasma. Concentrated [^14C]-labeled olinciguat (1 μl,1 mCi/ml stock concentration) was spiked into each sample and mixed by vortexing. Triplicate 500 μl aliquots of plasma containing [^14C]-labeled olinciguat were transferred to a Rapid Equilibrium Dialysis system and dialyzed (molecular weight cut-off ~8000 Da) against 500 μl of phosphate-buffered saline (PBS) at room temperature for 18 h. Radioactivity of [^14C]-labeled olinciguat in PBS and plasma samples was measured using liquid scintillation counting.

[2] = test system: spontaneously hypertensive rats (SHR); test: Arterial hemodynamics by telemetry in spontaneously hypertensive rats; type: in vivo, rat
Method: as §1, §2, §3, §4

[3] = test system: vascular smooth muscle cells (VSMC) from rat aorta; test: Rat aorta vascular smooth muscle cell proliferation (3H-thymidine incorporation); type: cell-based; conditions: Rattus norvegicus, VSMC
Method: We explored the concentration response of olinciguat, tadalafil, and olinciguat in the presence of 1 μM tadalafil on rat aorta vascular smooth muscle proliferation, Tadalafil was used because it is a once-daily PDE5 inhibitor that, like the three-times-daily PDE5 inhibitor sildenafil, is approved for treatment of PAH and ED. Vascular smooth muscle cells (VSMC) from rat aorta (Lonza, R-ASM-580) were plated into a 96-well plate at 15,000 cells per well in DMEM:F12 containing 20% FBS and GA-1000 ([Gentamicin, Amphotericin B], Lonza, CC-40863) for 24 h at 37°C. Medium was removed and cells were washed once with 100 μl DMEM:F12 before adding 100 μl of DMEM:F12 and incubating for 24 h to induce quiescence. Cells were then cultured for 24 h in DMEM:F12 supplemented with 5% FBS, in the presence of test articles (vehicle, olinciguat, tadalafil) with 10 µM DETA. In the last 6 h, 0.2 μCi of ^3H-thymidine (American Radiolabeled Chemicals, ART 0178A) was added to each well to measure DNA synthesis by thymidine incorporation. Cells were washed once with HBSS and then trypsinized and transferred into FB filter plates (Millipore, MADVNOB). A rapid-filtration technique using a filtration apparatus (Millipore, MAVM0960R) with vacuum aspiration was used to harvest and rinse labeled cells (6× with 0.2 ml of chilled water). The radioactivity bound to the filters was counted with 80 µl of liquid scintillant (PerkinElmer, UltraGold MV, 6013159) in a scintillation counter (Perkin Elmer Microbeta instrument).
In the vascular smooth muscle cell proliferation experiment, a comparison between the IC50's for olinciguat alone vs oliniciguat in the presence of 1 µM tadalafil was performed by a two-tailed t-test using Log EC50 best fit values and SEs determined from a four-parameter nonlinear curve fit, assuming n=60 degrees of freedom.

[4] = 10 mg/kg p.o. QD, day 3, 10 mg/kg

## NC(=O)[C@](O)(CNc1nc(-c2cc(-c3ccon3)n(Cc3ccccc3F)n2)ncc1F)C(F)(F)F [olinciguat, (R)-3,3,3-trifluoro-2-(((5-fluoro-2-(1-(2-fluorobenzyl)-5-(isoxazol-3-yl)-1H-pyrazol-3-yl)pyrimidin-4-yl)amino)methyl)-2-hydroxypropanamide]
Normotensive Wistar rats; 1 mg/kg p.o. QD
  MAP vs vehicle-treated rats: not significantly different from vehicle at any time
Normotensive Wistar rats; 3 mg/kg p.o. QD
  MAP vs vehicle-treated rats: lower only on the second and third day of dosing
Normotensive Wistar rats; 10 mg/kg p.o. QD
  MAP vs vehicle-treated rats: lower on all 3 days of dosing
Normotensive Wistar rats; [4]
  maximum absolute change in MAP: −11 ± 3 mmHg and −11^b mmHg
[1]
  fraction unbound at 18 h: 0.01
[2]; 1 mg/kg p.o. QD
  MAP vs vehicle-treated rats: only lower than vehicle-treated rats on the third day of dosing
[2]; 3 mg/kg p.o. QD, 6-h period following dosing on all 3 days
  MAP vs vehicle-treated rats: significantly lower than vehicle-treated rats
[2]; 10 mg/kg p.o. QD, 6-h period following dosing on all 3 days
  MAP vs vehicle-treated rats: significantly lower than vehicle-treated rats
[2]; [4]
  maximum absolute change in MAP: −26 ± 2 mmHg and −26^b mmHg
[3]; 5% FBS, 10 µM DETA, 3H-thymidine incorporation, 95% CI 22.4 to 39 nM, read-out: IC50, VSMC proliferation, olinciguat alone
  IC50: 29.6 nM
[3]; Table 2 summary, olinciguat alone, read-out: Rat vascular smooth muscle proliferation EC50, olinciguat concentration (range = 95% CI)
  EC50: 22.4 to 39 nM
